What was measured:
Chenopodium = experiment: Post-emergence test; format: in vivo; conditions: greenhouse, scored after three weeks; for pest or weed control at 500 g/ha: 500 g of ai./ha
Description: (§1) Post-emergence Test Solvent: 5 parts by weight of acetone Emulsifier: 1 part by weight of alkylaryl polyglycol ether To produce a suitable preparation of active compound, 1 part by weight of active compound is mixed with the stated amount of solvent, the stated amount of emulsifier is added and the concentrate is diluted with water to the desired concentration. Test plants which have a height of 5-15 cm are sprayed with the preparation of active compound such that the particular amounts of active compounds desired are applied per unit area. The concentration of the spray liquor is chosen so that the particular amounts of active compound desired are applied in 1000 l of water/ha. After three weeks, the degree of damage to the plants is scored visually in % damage in comparison to the untreated control. The Figures Denote: 0%=no effect (like untreated control) 100%=total destruction

Wheat = experiment: Post-emergence test; format: in vivo; conditions: greenhouse, scored after three weeks; for plant injury at 500 g/ha: 500 g of ai./ha; for % damage, Wheat: 250 g of ai./ha
Description: as §1

Setaria = experiment: Post-emergence test; format: in vivo; conditions: greenhouse, scored after three weeks; for pest or weed control at 500 g/ha: 500 g of ai./ha; for pest or weed control at 1000 g/ha: 1000 g of ai./ha
Description: as §1

Amaranthus = experiment: Post-emergence test; format: in vivo; conditions: greenhouse, scored after three weeks; for pest or weed control at 500 g/ha: 500 g of ai./ha; for pest or weed control at 1000 g/ha: 1000 g of ai./ha
Description: as §1

Viola = experiment: Post-emergence test; format: in vivo; conditions: greenhouse, scored after three weeks; for pest or weed control at 500 g/ha: 500 g of ai./ha
Description: as §1

Polygonum = experiment: Post-emergence test; format: in vivo; conditions: greenhouse, scored after three weeks; for pest or weed control at 500 g/ha: 500 g of ai./ha
Description: as §1

weeds [1] = experiment: Post-emergence test (summary in text); format: in vivo; conditions: result in words
Description: (§2) Solvent: 5 parts by weight of acetone
(§3) Emulsifier: 1 part by weight of alkylaryl polyglycol ether
(§4) To produce a suitable preparation of active compound, 1 part by weight of active compound is mixed with the stated amount of solvent, the stated amount of emulsifier is added and the concentrate is diluted with water to the desired concentration.
Test plants which have a height of 5-15 cm are sprayed with the preparation of active compound such that the particular amounts of active compounds desired are applied per unit area. The concentration of the spray liquor is chosen so that the particular amounts of active compound desired are applied in 1000 l of water/ha.
After three weeks, the degree of damage to the plants is scored visually in % damage in comparison to the untreated control.
(§5) 0%=no effect (like untreated control)

Sinapis = experiment: Post-emergence test; format: in vivo; conditions: greenhouse, 1000 g of ai./ha, scored after three weeks
Description: as §1

weeds [2] = experiment: Pre-emergence test (summary in text); format: in vivo; conditions: result in words
Description: as §2, §3, §4
Seeds of the test plants are sown in normal soil. After about 24 hours, the soil is watered with the preparation of active compound. The amount of water per unit area is advantageously kept constant. The concentration of active compound in the preparation is immaterial, only the application rate of active compound per unit area matters.
After three weeks, the degree of damage to the plants is scored visually in % damage in comparison to the development of the untreated control.
as §5

[3] = Chenopodium, 504 h, read-out: % damage, Chenopodium
[4] = Triticum aestivum, 504 h, read-out: % damage, Wheat
[5] = Setaria, 504 h, read-out: % damage, Setaria
[6] = Amaranthus, 504 h, read-out: % damage, Amaranthus
[7] = 504 h, read-out: % damage, Viola
[8] = Polygonum, 504 h, read-out: % damage, Polygonum

CC(=O)Nc1nc(NC(C)c2ccc(Cl)cc2)nc(C(F)(F)F)n1 (stereo not drawn)
pest or weed control at 500 g/ha (Chenopodium; [3]): 100% | plant injury at 500 g/ha (Wheat; [4]): 10% | pest or weed control at 500 g/ha (Setaria; [5]): 95% | pest or weed control at 500 g/ha (Amaranthus; [6]): 100% | pest or weed control at 500 g/ha (Viola; [7]): 100% | pest or weed control at 500 g/ha (Polygonum; [8]): 100%

CSc1ccc(C(C)Nc2nc(N)nc(C(Cl)Cl)n2)cc1 (stereo not drawn) [drawing 113]
pest or weed control at 1000 g/ha (Chenopodium; Chenopodium, 504 h, 1000 g of ai./ha, read-out: % damage, Chenopodium): 100% | plant injury at 1000 g/ha (Wheat; Triticum aestivum, 504 h, 1000 g of ai./ha, read-out: % damage, Wheat): 0% | pest or weed control at 1000 g/ha (Setaria; [5]): 90% | pest or weed control at 1000 g/ha (Amaranthus; [6]): 100% | pest or weed control at 1000 g/ha (Viola; 504 h, 1000 g of ai./ha, read-out: % damage, Viola): 100% | pest or weed control at 1000 g/ha (Polygonum; Polygonum, 504 h, 1000 g of ai./ha, read-out: % damage, Polygonum): 80%

COc1ccc(C(C)Nc2nc(NC(C)=O)nc(C(F)(F)F)n2)cc1 (stereo not drawn) [drawing 141]
pest or weed control at 500 g/ha (Chenopodium; [3]): 100% | plant injury at 500 g/ha (Wheat; [4]): 10% | pest or weed control at 500 g/ha (Setaria; [5]): 95% | pest or weed control at 500 g/ha (Amaranthus; [6]): 100% | pest or weed control at 500 g/ha (Viola; [7]): 100% | pest or weed control at 500 g/ha (Polygonum; [8]): 100%

COCc1nc(NC(C)=O)nc(NC(C)c2ccc(Cl)cc2)n1 (stereo not drawn) [drawing 135]
pest or weed control at 500 g/ha (Chenopodium; [3]): 100% | plant injury at 500 g/ha (Wheat; [4]): 10% | pest or weed control at 500 g/ha (Setaria; [5]): 70% | pest or weed control at 500 g/ha (Amaranthus; [6]): 100% | pest or weed control at 500 g/ha (Viola; [7]): 100% | pest or weed control at 500 g/ha (Polygonum; [8]): 100%

COc1ccc(C(C)Nc2nc(NC(C)=O)nc(C(F)(F)F)n2)cc1 (stereo not drawn) [Example 82]
activity against weeds (weeds [1]): strong activity | melting point: 130 °C

CC(=O)Nc1nc(NC(C)c2ccc(Cl)cc2)nc(C(Cl)Cl)n1 (stereo not drawn) [Example 175]
activity against weeds (weeds [1]): strong activity | melting point: 131 °C

CSc1ccc(C(C)Nc2nc(N)nc(C(C)(Cl)Cl)n2)cc1 (stereo not drawn) [drawing 114]
pest or weed control at 500 g/ha (Chenopodium; [3]): 100% | plant injury at 500 g/ha (Wheat; [4]): 0% | pest or weed control at 500 g/ha (Setaria; [5]): 80% | pest or weed control at 500 g/ha (Amaranthus; [6]): 100% | pest or weed control at 500 g/ha (Viola; [7]): 100% | pest or weed control at 500 g/ha (Polygonum; [8]): 100%

COCc1nc(NC(C)=O)nc(NC(C)c2ccc(SC)cc2)n1 (stereo not drawn) [Example 103]
activity against weeds (weeds [1]): strong activity | melting point: 141 °C

COSc1ccc(C(C)Nc2nc(N)nc(C(C)Cl)n2)cc1 (stereo not drawn)
pest or weed control at 1000 g/ha (Setaria; [5]): 100% | pest or weed control at 1000 g/ha (Amaranthus; [6]): 100% | % damage, Sinapis (Sinapis): 100%

CCc1nc(NC(C)=O)nc(NC(C)c2ccc(Cl)cc2)n1 (stereo not drawn) [drawing 132]
pest or weed control at 500 g/ha (Chenopodium; [3]): 100% | plant injury at 500 g/ha (Wheat; [4]): 10% | pest or weed control at 500 g/ha (Setaria; [5]): 80% | pest or weed control at 500 g/ha (Amaranthus; [6]): 100% | pest or weed control at 500 g/ha (Viola; [7]): 100% | pest or weed control at 500 g/ha (Polygonum; [8]): 100%

CC(Cl)c1nc(N)nc(NC(C)c2ccc(Cl)cc2)n1 (stereo not drawn) [drawing 125]
% damage, Chenopodium (Chenopodium; 250 g of ai./ha): 95% | % damage, Wheat (Wheat): 10% | % damage, Setaria (Setaria; 250 g of ai./ha): 80% | % damage, Amaranthus (Amaranthus; 250 g of ai./ha): 100% | % damage, Viola (Viola; 250 g of ai./ha): 95% | % damage, Polygonum (Polygonum; 250 g of ai./ha): 95%

CCC(Nc1nc(N)nc(C(F)(F)F)n1)c1ccc(Cl)cc1 (stereo not drawn) [drawing 137]
pest or weed control at 250 g/ha (Chenopodium; Chenopodium, 504 h, 250 g of ai./ha, read-out: % damage, Chenopodium): 100% | % damage, Wheat (Wheat): 0% | pest or weed control at 250 g/ha (Setaria; Setaria, 504 h, 250 g of ai./ha, read-out: % damage, Setaria): 95% | pest or weed control at 250 g/ha (Amaranthus; Amaranthus, 504 h, 250 g of ai./ha, read-out: % damage, Amaranthus): 100% | pest or weed control at 250 g/ha (Viola; 504 h, 250 g of ai./ha, read-out: % damage, Viola): 100% | pest or weed control at 250 g/ha (Polygonum; Polygonum, 504 h, 250 g of ai./ha, read-out: % damage, Polygonum): 100%

CC(=O)Nc1nc(NC(C)c2ccc(Cl)cc2)nc(C(C)Cl)n1 (stereo not drawn) [Example 177]
activity against weeds (weeds [1]): strong activity | melting point: 110 °C

CSc1ccc(C(C)Nc2nc(N)nc(C(F)(F)F)n2)cc1 (racemic) [Example 1, 2-amino4-trifluoromethyl-6-[1-(4-methylthio-phenyl)-ethylamino]-1,3,5-triazine]
melting point: 111 °C

CSc1ccc(C(C)Nc2nc(NC(C)=O)nc(C(F)(F)F)n2)cc1 (racemic) [Example 2, 2-acetylamino-4-trifluoromethyl-6-[1-(4-methylthio-phenyl)-ethylamino]-1,3,5-triazine]
melting point: 132 °C

COc1ccc(C(C)Nc2nc(NC(C)=O)nc(C(F)(F)F)n2)cc1 (stereo not drawn) [Example 84]
activity against weeds (weeds [1]): strong activity | melting point: 108 °C

CCC(Nc1nc(N)nc(C(F)(F)F)n1)c1ccc(Cl)cc1 (stereo not drawn) [Example 85]
activity against weeds (weeds [1]): strong activity | melting point: 145 °C

CC(F)c1nc(N)nc(NC(C)c2ccc(Cl)cc2)n1 (stereo not drawn) [Example 14]
activity against weeds (weeds [2]): strong activity

Source: patent publication US6440903B1, “Substituted 2,4-diamino-1,3,5-triazines as herbicides” (Bayer Aktiengesellschaft, priority 1996, dated 2002)
